Values joined by “and” are separate entries in the source; they are usually repeats but may differ in a detail not shown here. Equal entries are not always repeated. Where two headings read alike, the source gives them in different places.

For assay [1], the target named is angiotensin II AT1 receptor. Description: Assay A: Angiotensin II binding activity (125I-AII displacement, rat uterine membrane preparation).
Assay [2] has as its system rabbit aortic rings. Description: Assay B: In vitro vascular smooth muscle response for AII (antagonist activity, pA2). In kind it is cell-based. Conditions: two values per cell separated by / are separate determinations; for Kb: Oryctolagus cuniculus. Here is the method: Assay B: In Vitro Vascular Smooth Muscle-response for AII
The compounds of the invention were tested for antagonist activity in rabbit aortic rings. Male New Zealand white rabbits (2-2.5 kg) were sacrificed using an overdose of pentobarbital and exsanguinated via the carotid arteries. The thoracic aorta was removed, cleaned of adherent fat and connective tissue and then cut into 3-mm ring segments. The endothelium was removed from the rings by gently sliding a rolled-up piece of filter paper into the vessel lumen. The rings were then mounted in a water-jacketed tissue bath, maintained at 37° C., between moveable and fixed ends of a stainless steel wire with the moveable end attached to an FT03 Grass transducer coupled to a Model 7D Grass Polygraph for recording isometric force responses. The bath was filled with 20 ml of oxygenated (95% oxygen/5% carbon dioxide) Krebs solution of the following composition (mM): 130 NaCl, […], 15 KCl, 1.2 NaH2PO4, 1.2 MgSO4, 2.5 CaCl2, and 11.4 glucose. The preparations were equilibrated for one hour before approximately one gram of passive tension was placed on the rings. Angiotensin II concentration-response curves were then recorded (3×10^−10 to 1×10^−5 M). Each concentration of AII was allowed to elicit its maximal contraction, and then AII was washed out repeatedly for 30 minutes before rechallenging with a higher concentration of AII. Aorta rings were exposed to the test antagonist at […] for 5 minutes before challenging with AII. Adjacent segments of the same aorta ring were used for all concentration-response curves in the presence or absence of the test antagonist. The effectiveness of the test compound was expressed in terms of pA2 values and were calculated according to H. O. Schild [Br. J. Pharmacol, Chemother., 2,189-206 (1947)]. The pA2 value is the concentration of the antagonist which increases the EC50 value for AII by a factor of two. Each test antagonist was evaluated in aorta rings from two rabbits.

In assay [3] the test system is pressor response to AII. Nature of the assay: Assay C: In vivo intragastric pressor assay response for AII antagonists. Conditions: intragastric, or intraduodenal for examples listed; for Assay C Inhibition: dose cell empty (dose not given). Details: species or system rat. The gist of the method: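 Conscious male Sprague-Dawley rats with arterial and venous catheters received 30 ng/kg i.v. angiotensin II boluses before and at 30–180 min after gavage of compound (standard 3 mg/kg in 0.5% methylcellulose). Pressor rise in mmHg measured; percent inhibition calculated versus averaged control response at each time point.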

Where [4] appears, read: in vitro vascular smooth muscle response, read-out: Assay B pA2 (converted).
The mark [5] stands for this setting: Rattus norvegicus, dose 30 mg/kg.
The mark [6] stands for this setting: Rattus norvegicus, dose 3 mg/kg.
[7] abbreviates: Rattus norvegicus, dose 10 mg/kg.

In assay [1], `CCCCc1nc(C(=O)CCC)nn1Cc1ccc(-c2ccccc2-c2nnn[nH]2)cc1` [Compound 30] gave an IC50 of 22 nM. Moreover, in assay [2] (setting [4]), the Kb is 18.6 nM. Besides, 30 mg/kg produced 50% inhibition in assay [3] (setting [5]). Moreover, the “Assay C Duration” value in assay [3] (dose 30 mg/kg) is >180 min.
In the case of `CCCCc1nn(CC(=O)OC(C)(C)C)c(=O)n1Cc1ccc(-c2ccccc2-c2nn[nH]n2)cc1` [Compound 84], the IC50 in assay [1] was 16 nM. For the same compound, in assay [2] (setting [4]), the Kb is 79.4 nM. Moreover, in assay [3], the “Assay C Inhibition” value is given as 20%.
Compound `CCCCc1nc(CCCC)n(Cc2ccc(-n3c(Cl)cc(Cl)c3-c3nnn[nH]3)cc2)n1` [Compound 143] came in with an IC50 in assay [1] of 0.052 nM. Moreover, in assay [2] (setting [4]), the Kb is 20 nM. Also, the “Assay C Inhibition” value in assay [3] came to 85%.
For the compound `CCCCn1nc(CCC)nc1Cc1ccc(-c2ccccc2-c2nnn[nH]2)nc1` [Compound 152], the IC50 in assay [1] turned out to be 150 nM. Besides, in assay [2] (setting [4]), the Kb was 34.7 nM. The same compound had an inhibition at 3 mg/kg in assay [3] (setting [6]) of 10%. In addition, the “Assay C Duration” value in assay [3] (dose 3 mg/kg) is 140 min.
`CCCCc1nc(CCc2ccccc2)nn1Cc1ccc(-c2ccccc2-c2nnn[nH]2)cc1` [Compound 26] registered an IC50 in assay [1] of 3.2 nM. In addition, the Kb in assay [2] (setting [4]) was 0.148 nM. 10 mg/kg produced 50% inhibition in assay [3] (setting [7]). Further, in assay [3] (dose 10 mg/kg), the “Assay C Duration” value was >180 min.
`CCCCc1cn(CCc2cccs2)c(=O)n1Cc1ccc(-c2ccccc2-c2nnn[nH]2)cc1` [Compound 134] yielded an IC50 in assay [1] of 22 nM. The Kb in assay [2] (setting [4]) was 0.501 nM. This compound displayed an inhibition at 3 mg/kg in assay [3] (setting [6]) of 35%. Also, in assay [3] (dose 3 mg/kg), the “Assay C Duration” value worked out at 180 min.
On to `CCCCn1nc(C(OCC)OCC)nc1Cc1ccc(-c2ccccc2-c2nnn[nH]2)nc1` [Compound 176], for which the IC50 in assay [1] was 9.8 nM. Besides, the Kb in assay [2] (setting [4]) is 20.4 nM. The compound also gave an inhibition at 3 mg/kg in assay [3] (setting [6]) of 10%. For the same compound, the “Assay C Duration” value in assay [3] (dose 3 mg/kg) was 150 min.
`CCCn1nc(C(F)(F)CCC)nc1Cc1ccc(-c2ccccc2-c2nnn[nH]2)nc1` [Compound 169] showed an IC50 in assay [1] of 150 nM. Moreover, in assay [2] (setting [4]), the Kb is 16.6 nM. In assay [3] (setting [6]), this compound displayed an inhibition at 3 mg/kg of 15%. Besides, the “Assay C Duration” value in assay [3] (dose 3 mg/kg) worked out at 180 min.
Turning to `CCCCc1nc(Cl)c(CO)n1Cc1ccc(-n2cccc2C(=O)O)cc1` [Compound 148], the Kb in assay [2] (setting [4]) is 1580 nM. The compound further registered an inhibition at 3 mg/kg in assay [3] (setting [6]) of 92%. Besides, the “Assay C Duration” value in assay [3] (dose 3 mg/kg) lay within 20 to 30 min.
With `CCCCc1nn(CCCc2ccccc2)c(=O)n1Cc1ccc(-c2ccccc2-c2nn[nH]n2)cc1` [Compound 81], the IC50 in assay [1] is 18 nM. Further, in assay [2] (setting [4]), the Kb was 10 nM. Moreover, the “Assay C Inhibition” value in assay [3] is 40%.
For the compound `CCCCc1nn(CC(OCC(=O)O)c2ccccc2)c(=O)n1Cc1ccc(-c2ccccc2-c2nn[nH]n2)cc1` (centres unmarked) [Compound 91], the IC50 in assay [1] worked out at 30 nM. Moreover, the Kb in assay [2] (setting [4]) is 2.51 nM. For the same compound, the “Assay C Inhibition” value in assay [3] is listed as 40%.
With `CCCCc1cn(-c2ccccc2Cl)c(=O)n1Cc1ccc(-c2ccccc2-c2nnn[nH]2)cc1` [Compound 135], the IC50 in assay [1] worked out at 16 nM. The Kb in assay [2] (setting [4]) was 3.16 nM. In assay [3] (setting [6]), this compound yielded an inhibition at 3 mg/kg of 35%. Besides, in assay [3] (dose 3 mg/kg), the “Assay C Duration” value is >180 min.
On the same counts, the results for `CCCCc1nc(C(=O)N(C)C(C)(C)C)nn1Cc1ccc(-c2ccccc2-c2nnn[nH]2)nc1` [Compound 255] are 12 nM, 24.5 nM, 20% and >180 min.
On to `CCCCc1nn(CCCC)c(=O)n1Cc1ccc(-c2ccccc2C(=O)O)cc1` [Compound 78], for which the IC50 in assay [1] was 101 nM. For the same compound, the Kb in assay [2] (setting [4]) is 100 nM. In assay [3], the “Assay C Inhibition” value is reported as 93%.
On to `CCCCc1nc2cnncc2n1Cc1ccc(-c2ccccc2C(=O)O)cc1` [Compound 108], for which, in assay [1], the concentration for half-maximal inhibition (IC50) came out at 720 nM. In addition, in assay [2] (setting [4]), the Kb is 5010 nM. This compound returned an inhibition at 100 mg/kg in assay [3] (Rattus norvegicus, dose 100 mg/kg) of 45%. Moreover, in assay [3] (dose 100 mg/kg), the “Assay C Duration” value is 90 min.
Turning to `CCCCc1nc2c(OC(=O)C3CCCCC3)nnc(O)c2n1Cc1ccc(-c2ccccc2-c2nnn[nH]2)cc1` [Compound 120], in assay [2] (setting [4]), the Kb is 0.891 nM. For the same compound, the inhibition at 10 mg/kg in assay [3] (setting [7]) is 80%. Moreover, in assay [3] (dose 10 mg/kg), the “Assay C Duration” value was 240 min.
Turning to `CCCCc1cn(-c2c(C)cccc2C)c(=O)n1Cc1ccc(-c2ccccc2-c2nnn[nH]2)cc1` [Compound 275], in assay [1], the IC50 is 6.3 nM. Moreover, in assay [2] (setting [4]), the Kb is 0.851 nM. The compound also showed an inhibition at 3 mg/kg in assay [3] (setting [6]) of 40%. Besides, in assay [3] (dose 3 mg/kg), the “Assay C Duration” value was >180 min.
Regarding `CCCCc1nc(Cl)nn1Cc1ccc(-c2ccccc2-c2nnn[nH]2)cc1` [compound 7], the Kb in assay [2] (setting [4]) is 9.77 nM. This compound also displayed an inhibition at 30 mg/kg in assay [3] (setting [5]) of 90%.
For the compound `CCCCc1nc2c(O)nnc(O)c2n1Cc1ccc(-c2ccccc2C(=O)O)cc1` [Compound 109], the IC50 in assay [1] came to 250 nM. The Kb in assay [2] (setting [4]) was 50.1 nM. The inhibition at 30 mg/kg in assay [3] (setting [5]) worked out at 50%. Moreover, the “Assay C Duration” value in assay [3] (dose 30 mg/kg) came out at 30 min.
On to `CCCCc1nc2c(OC(=O)Cc3ccccc3)nnc(O)c2n1Cc1ccc(-c2ccccc2-c2nnn[nH]2)cc1` [Compound 124], for which, in assay [2] (read-out: Assay B pA2, in vitro vascular smooth muscle response (converted)), the Kb is 0.38 nM. Besides, the inhibition at 3 mg/kg in assay [3] (setting [6]) amounted to 45%. In addition, the “Assay C Duration” value in assay [3] (dose 3 mg/kg) is >180 min.
In turn, `CCCCc1nc(Cl)c(Cl)n1Cc1ccc(-n2cccc2C(=O)O)cc1` [Compound 147] gave an IC50 in assay [1] of 5.8 nM. In addition, the Kb in assay [2] (setting [4]) was 2510 nM. Moreover, the inhibition at 3 mg/kg in assay [3] (setting [6]) is 74%. In addition, the “Assay C Duration” value in assay [3] (dose 3 mg/kg) was 5 to 10 min.
`CCCCc1nc2c(CCC)nnc(O)c2n1Cc1ccc(-c2ccccc2-c2nnn[nH]2)cc1` [Compound 113]: the Kb in assay [2] (setting [4]) was 3.98 nM. The compound also yielded an inhibition at 10 mg/kg in assay [3] (setting [7]) of 60%. Further, the “Assay C Duration” value in assay [3] (dose 10 mg/kg) came out at 180 min.
As to `CCCCc1nc(CCCC)n(Cc2ccc(-c3ccccc3-c3nnn[nH]3)cn2)n1` [Compound 239], the Kb in assay [2] (setting [4]) is 13.2 nM. Also, in assay [3] (setting [6]), the inhibition at 3 mg/kg worked out at 20%.
Take `CCCCc1nc(C(F)(F)CCC)n(Cc2ccc(-c3ccccc3-c3nnn[nH]3)nc2)n1` [Compound 248]: the IC50 in assay [1] is 20 nM. The Kb in assay [2] (setting [4]) was 20.9 nM. In assay [3] (setting [6]), this compound displayed an inhibition at 3 mg/kg of 10%.
`CCCCc1nc(Cc2ccc(-c3ccccc3-c3nnn[nH]3)nc2)n(CCCC)n1` [Compound 150]: the IC50 in assay [1] was 14 nM. For the same compound, the Kb in assay [2] (setting [4]) is 9.33 nM. In assay [3] (setting [6]), this compound showed an inhibition at 3 mg/kg of 25%. Besides, the “Assay C Duration” value in assay [3] (dose 3 mg/kg) is >180 min.
On to `CCCCc1cn(-c2c(OC)cccc2OC)c(=O)n1Cc1ccc(-c2ccccc2-c2nnn[nH]2)cc1` [Compound 273], for which the IC50 in assay [1] came to 9.8 nM. In addition, the “Assay B pA2” value in assay [2] (in vitro vascular smooth muscle response) was 8.53 and 8.61. Further, the inhibition at 3 mg/kg in assay [3] (setting [6]) was 25%. Also, the “Assay C Duration” value in assay [3] (dose 3 mg/kg) was >180 min.
In the case of `CCCCc1nc2cnnc(O)c2n1Cc1ccc(-c2ccccc2-c2nnn[nH]2)cc1` [Compound 115], in assay [2] (setting [4]), the Kb is 6.31 nM. Besides, testing at 3 mg/kg in assay [3] (setting [6]) gave an inhibition of 40%. The “Assay C Duration” value in assay [3] (dose 3 mg/kg) is >240 min.
As for `CCCCc1nc2c(O)nnc(O)c2n1Cc1ccc(-c2ccccc2-c2nnn[nH]2)cc1` [Compound 111], the Kb in assay [2] (setting [4]) is 1 nM. Also, at 30 mg/kg the inhibition in assay [3] (setting [5]) was 87%.
As to `CCCCc1nc2c(OC(=O)C(C)C)nnc(O)c2n1Cc1ccc(-c2ccccc2-c2nnn[nH]2)cc1` [Compound 119], the Kb in assay [2] (setting [4]) is 0.617 nM. Moreover, testing at 3 mg/kg in assay [3] (setting [6]) gave an inhibition of 20%. Further, the “Assay C Duration” value in assay [3] (dose 3 mg/kg) was 60 min.

Source of the values: patent US6653306B1, “Epoxy-steroidal aldosterone antagonist and angiotensin II antagonist combination therapy” (G.D. Searle & Co., priority 1995, dated 2003).
